Measured values taken from patent publication US8575188B2 (priority 2009, dated 2013).
pIC50: −log10 of the molar value. Where two headings read alike, the source gives them in different places.

Experiments:
[1] = system: bone marrow progenitor cells; experiment: Bone marrow progenitor cell clonogenic assay (CFU-GM), human; conditions: Homo sapiens, CFU-GM, read-out: Human CFU-GM (IC50 nM) THLD
Experimental: (§1) A clonogenic assay was performed using bone marrow progenitor cells derived from the blood of mice and humans.

[2] = as above; conditions: human
Experimental: as §1

[3] = system: IGROV1 human ovarian cancer cells; experiment: Xenograft model of metastatic ovarian cancer (i.p.), survival; conditions: IGROV1 i.p., median survival treated / vehicle times 100; PO, QD × 5/wk, 4 weeks, 150 mg/Kg
Experimental: One arm was dosed with only vehicle and the results used for the efficacy calculations. […] A xenograft model of metastatic ovarian cancer was set up by the intraperitoneal (i.p) injection of 3×10^6 IGROV1 human ovarian cancer cells in nude mice. Mice were evaluated twice a week for morbidity and mortality. Kaplan-Meier survival curves were plotted.

[4] = system: bone marrow progenitor cells; experiment: Bone marrow progenitor cell clonogenic assay (CFU-GM), mouse; conditions: Mus musculus, CFU-GM, read-out: Mouse CFU-GM (IC50 nM) THLD
Experimental: as §1

[5] = as above; conditions: mouse
Experimental: as §1

[6] = system: MRP1 over expressing H69AR line; experiment: Efflux pump drug resistance, antiproliferation assay, MRP1 over expressing line; type: cell-based; conditions: Homo sapiens, 120 h, air, 5 days, read-out: Air 5d H69ar (MRP1) prol. IC50
Experimental: (§2) The compounds were screened for cytotoxicity using human non small cell lung cancer cell line H460. […]
(§3) Cellular drug resistance was determined using the antiproliferation assay described above.

[7] = system: Messa ovarian carcinoma cell line; experiment: Efflux pump drug resistance, antiproliferation assay, parent line; type: cell-based; conditions: Homo sapiens, MES-SA, air
Experimental: […] Cells were treated with test compounds at various concentrations under air for 72 hrs, and then cell viability and proliferation were assessed by Alamar Blue staining.
as §3

pcDNA = experiment: as above; type: cell-based; conditions: air
Experimental: as §2, §3

[8] = system: H69 small cell lung cancer line; experiment: as above; type: cell-based; conditions: 120 h; air, 5 days; read-out: Air 5d H69 prol. IC50
Experimental: as §2, §3

[9] = Brain penetration, AUC in brain versus AUC plasma; conditions: mouse
Experimental: Certain compounds of the invention were assessed for brain penetration by comparing the AUC for plasma exposure versus the AUC in brain.

[10] = system: human non small cell lung cancer cell line H460; experiment: Antiproliferation (cytotoxicity) assay, 72 hrs under air, Alamar Blue; type: cell-based; conditions: Homo sapiens, NCI-H460; H460, inhibition of proliferation, 72 hrs under air; read-out: IC50
H46O cells = experiment: Selective hypoxic activation of 14-nitro prodrugs in cell culture; type: cell-based, human; conditions: TH1332 at 5 micromolar, 24 hour
Experimental: H46O cells were grown to a confluent monolayer and then the 14-nitro TH1332 prodrug was added to the media at 5 micromolar concentration. Incubations were done for 24 hour either under air or nitrogen (hypoxia), media and cells were recovered, sonicated and soluble extracts were isolated by acetonitrile precipitation of proteins. The level of amino TH1338 active cytotoxin were quantitated by liquid chromotagraphy mass spectra analysis. The equivalent of 70 nanomolar TH1338 was produced under hypoxia with undetectable levels being produced under air (less than 5 nanomolar).
The analogous experiment was preformed using 1 micromolar concentration of the 14-nitro derivative TH1431. After 24 hr, 180 nanomolar of the 14 amino TH1499 was produced under nitrogen with undetectable levels produced under air (less than 5 nanomolar).

[11] = system: human prostate cancer PC-3; experiment: Xenograft model, subcutaneous, tumor growth inhibition and body weight loss
Experimental: (§4) The first three models were produced by subcutaneous implantation of the appropriate number of cells into the flank of the animals. When tumor size was approximately 150 mm^3, animals were randomized into groups of 10 mice each for dosing. One arm was dosed with only vehicle and the results used for the efficacy calculations. […] TGI=(1−T/C) %. T/C ratio was calculated as T/C=(Tn−Ti)/(Cn−Ci), where Tn is tumor volume in treatment group on Day n, and Ti is the initial tumor volume in the treatment group. Cn is the tumor volume of the vehicle group on the last day of measurement. Ci is the initial tumor volume in the vehicle control group. Day n is the last measurement taken when all the animals in the vehicle group were not yet euthanized. Animals were euthanized when tumor volumes grew larger than 2000 mm^3.

human colon cancer HT-29 = experiment: as above
Experimental: as §4

[12] = system: human non small cell lung cancer H-460; experiment: as above
Experimental: as §4

[13] = In vivo pharmacokinetics, oral gavage; conditions: CD, mouse, in vivo, po
Experimental: The data normalized to a 50 mg/kg dose are shown below (compounds were dosed at either 25 or 50 mg/kg).

[14] = system: BCRP, which over expressed the breast cancer resistance protein; experiment: Efflux pump drug resistance, antiproliferation assay, BCRP over expressing line
Experimental: as §2, §3

[15] = system: DX5, which over expresses the MDR 1 efflux pump; experiment: Efflux pump drug resistance, antiproliferation assay, MDR 1 over expressing line; type: cell-based; conditions: air
Experimental: as §2, §3

Structure (SMILES): CCc1c2c(nc3ccccc13)-c1c([N+](=O)[O-])c3c(c(=O)n1C2)COC(=O)[C@]3(O)CC [TH1332]
- IC50 [1]: > 1000 nM
- IC90 [2]: > 0.1 µM
- T/C [3]: 159
- IC50 [4]: > 10000 nM
- IC90 [5]: > 10 µM
- pIC50 [6]: 5.06
- pIC50 ([7]; 72 h, 3 days, read-out: Air 3d MESSA prol. IC50): 5.28
- pIC50 ([7]; 120 h, 5 days, read-out: Air 5d MESSA prol. IC50): 5.63
- pIC50 (pcDNA; 72 h, 3 days, read-out: Air 3d pcDNA prol. IC50): 5.74
- pIC50 (pcDNA; 120 h, 5 days, read-out: Air 5d pcDNA prol. IC50): 7.62
- pIC50 [8]: 5.37
- Kp [9]: 0.18
- pIC50 [10]: 7.18
- TH1338 produced under air (H46O cells; air, undetectable levels): less than 5 nanomolar
- TH1338 produced under hypoxia (H46O cells; nitrogen (hypoxia), LC-MS): 70 nM
- TGI (%) ([11]; PC3, PO, QD × 5/wk, 2 weeks, 150 mg/Kg): 103%
- Max. BWL (%) ([11]; mouse, in vivo, po, 150 mg/kg): 1.8%
- TGI (%) (human colon cancer HT-29; HT29, PO, QD × 5/wk, 4 weeks, 150 mg/Kg): 62.8%
- Max. BWL (%) (human colon cancer HT-29; mouse, in vivo, po, 150 mg/kg): 0%
- TGI (%) ([12]; H460, PO, QD × 5/wk, 2 weeks, 150 mg/Kg): 91.4%
- Max. BWL (%) ([12]; mouse, in vivo, po, 150 mg/kg): 11.4%
- half-life [13]: 6.25 h
- AUC ([13]; 50 mg/kg): 1820 ng·h/mL
- Cmax ([13]; 50 mg/kg): 380 ng/mL
- IC50 ([14]; 72 h, read-out: Air 3d BCRP prol. IC50 nM, air, 3 days): 2300 nM
- IC50 ([14]; 120 h, read-out: Air 5d BCRP prol. IC50 nM, air, 5 days): 21 nM
- 3d BCRP/pcDNA ([14]; ratio of IC50s, BCRP over expressing versus parent line, 3 days): 1.3
- 5d BCRP/pcDNA ([14]; ratio of IC50s, BCRP over expressing versus parent line, 5 days): 0.875
- pIC50 ([15]; MDR1, 72 h, 3 days, read-out: Air 3d DX5 prol. IC50): 5.20
- pIC50 ([15]; MDR1, 120 h, 5 days, read-out: Air 5d DX5 prol. IC50): 5.56
